From article PMC6712885, “Improved homology modeling of the human & rat EP4 prostanoid receptors” (BMC Molecular and Cell Biology, 2019)
“And” between values parts separate entries of the source, which are not always exact repeats. Identical values can stand only once. Like-named read-outs stand apart in the source and are kept apart here.

Tests used:
Rat EP4 Receptor [1] = target: T1, Rat EP4 Receptor (Rattus norvegicus, UniProt P43114); parameters: method as in PMID 29636218; conditions: reported within cited reference; cited from earlier work
T1 construct: expressed in transfected cells; host or cells: HEK293T/17

hEP4 receptor [2] = target: T2, hEP4 receptor (Homo sapiens, UniProt P35408); parameters: expressed in transfected cells; host or cells: HEK293T/17; conditions: reported within cited reference; cited from earlier work
Rat EP4 Receptor [3] = target: T1, Rat EP4 Receptor; assay: EP4 receptor functional activation, cAMP ELISA in transfected HEK293T/17 cells; type: cell-based
Experimental: (§1) Human and rat EP4 receptors were expressed in HEK293T/17 cells separately by reverse transfection on 96-well plates with optimized amounts of cDNA expression constructs immobilized on the surface. Activation of EP4 receptor in this cell line was measured as an increase in cAMP levels using an ELISA kit (Cayman Chemical, Ann Arbor MI). In short, the transfection plates were seeded with 50,000–80,000 cells/well in reduced serum medium containing 0.5% FBS and incubated overnight at 37 °C with 5% CO2. Before stimulation with test compounds, media was aspirated from the wells and replaced with reduced serum media containing 0.5 mM 3-isobutyl 1-methylxanthine (IBMX). Compound dilution series were prepared in the same IBMX containing media at 2X final concentration and applied to the wells in equal volume. Stimulation media were aspirated from the plates after 30 min incubation with test compounds, and the plates with cells were placed on dry ice and then put into − 80 °C freezer for > 2 h. Cell lysates were prepared on thawed plates by adding 200 μl/well ice-cold ELISA buffer with 0.05% Tween-20 followed by titration. The cell lysates were then transferred to a polypropylene plate and clarified by centrifugation at 1000×g for 15 min at 4 °C. Supernatant was transferred into a pre-coated mouse Anti-Rabbit IgG ELISA plate together with serial dilutions of cAMP for a standard curve in triplicate. cAMP-acetylcholinesterase conjugate (cAMP tracer) was added, followed by cAMP EIA antiserum. Plates were incubated overnight with shaking. After washing 5 times in washing buffer, Ellman’s reagent was added to the well and shake for 90 min under cover before measuring absorbance at 405 nm on a plate reader.

hEP4 receptor [4] = target: T2, hEP4 receptor; assay: Radioligand ([H^3]-PGE2) competition binding, hEP4 membranes of HEK293 cells; parameters: expressed in transfected cells; host or cells: HEK293; conditions: Human EP4 Receptor; displacement of 0.5 nM [H^3]-PGE2, Cheng Prusoff
Experimental: (§2) Radioligand binding experiments were carried out versus the hEP4 and rEP4 receptors. […] We also implemented the rEP4 receptor binding studies. Equilibrium competition binding assays were conducted to determine the inhibition constants (Ki) for ligand interactions with EP4 receptors sourced from membranes (160,000×g) of HEK293 cells overexpressing recombinant hEP4 or rEP4 receptors. […] Assays were performed in 10 mM 2-(N-morpholino) ethanesulphonic acid (MES) buffer containing 1 mM EDTA and 10 mM MnCl2, pH 6.0, during 120 min at room temperature. Ki was calculated using the Cheng Prusoff equation where Ki = IC50/(1 […] L/Kd).

hEP4 receptor [5] = target: T2, hEP4 receptor; assay: cell-based; type: cell-based; parameters: expressed in transfected cells; host or cells: HEK293T/17
Experimental: as §1

rEP4 receptor = target: T3, rEP4 receptor (Rattus norvegicus, UniProt P43114); assay: Radioligand ([H^3]-PGE2) competition binding, rEP4 membranes of HEK293 cells
T3 construct: expressed in transfected cells; host or cells: HEK293
Experimental: as §2

hEP4 receptor [6] = target: T2, hEP4 receptor; parameters: expressed in transfected cells; host or cells: HEK293T/17; conditions: reported within cited reference; cited from earlier work; remark: listed apart in the source
[7] = Human EP4 Receptor, cAMP response assay, value ± spread (n), read-out: EC50
[8] = Rat EP4 Receptor, displacement of 0.5 nM [H^3]-PGE2, Cheng Prusoff, read-out: Ki

T3 sequence (P43114 whole entry): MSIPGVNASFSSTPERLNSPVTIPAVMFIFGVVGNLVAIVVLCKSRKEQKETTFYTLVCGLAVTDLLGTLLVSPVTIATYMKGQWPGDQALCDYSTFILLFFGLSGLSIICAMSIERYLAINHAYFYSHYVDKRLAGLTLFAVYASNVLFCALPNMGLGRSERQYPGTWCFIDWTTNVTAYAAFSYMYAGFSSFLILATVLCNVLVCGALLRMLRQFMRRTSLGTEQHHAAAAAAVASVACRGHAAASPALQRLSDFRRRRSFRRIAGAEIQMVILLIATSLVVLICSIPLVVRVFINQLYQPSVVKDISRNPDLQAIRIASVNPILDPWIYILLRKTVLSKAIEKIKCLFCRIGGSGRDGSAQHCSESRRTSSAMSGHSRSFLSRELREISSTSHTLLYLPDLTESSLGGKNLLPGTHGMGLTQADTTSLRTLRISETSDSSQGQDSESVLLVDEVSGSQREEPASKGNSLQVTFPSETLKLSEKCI
T1 sequence (P43114 whole entry): as above
T2 sequence (P35408 whole entry): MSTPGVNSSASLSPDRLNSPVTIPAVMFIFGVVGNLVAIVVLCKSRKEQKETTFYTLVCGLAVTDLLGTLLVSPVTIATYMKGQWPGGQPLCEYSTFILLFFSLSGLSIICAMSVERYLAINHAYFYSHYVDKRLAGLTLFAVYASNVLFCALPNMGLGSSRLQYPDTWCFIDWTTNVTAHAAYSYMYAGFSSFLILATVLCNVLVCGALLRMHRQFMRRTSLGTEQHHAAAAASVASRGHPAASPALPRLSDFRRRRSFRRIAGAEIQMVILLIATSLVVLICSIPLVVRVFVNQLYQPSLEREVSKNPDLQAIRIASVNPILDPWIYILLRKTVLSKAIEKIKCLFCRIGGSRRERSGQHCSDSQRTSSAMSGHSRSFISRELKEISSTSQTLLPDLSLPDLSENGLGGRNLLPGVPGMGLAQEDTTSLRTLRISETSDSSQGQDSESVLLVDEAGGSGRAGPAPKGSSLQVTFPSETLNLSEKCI

Compound	EC50 (Rat EP4 Receptor [3]) [nM]	Ki (hEP4 receptor [4]) [nM]	EC50 (hEP4 receptor [5]; [7])	Ki (rEP4 receptor; [8]) [nM]	other results
CCCCC(C)(O)C/C=C/[C@H]1[C@H](O)CC(=O)[C@@H]1CCCCCCC(=O)OC (mixture of isomers) [Misoprostol]					Ki (Rat EP4 Receptor [1]): 26300 nM; Ki (hEP4 receptor [2]): 4340 nM
CCCCC[C@H](O)/C=C/[C@H]1CCC(=O)N1CCCCCCC(=O)O [8-aza-11-deoxy-PGE1]	2.64 ± 0.62	1.7	1.77 ± 0.32 nM		
CCCCC[C@H](O)/C=C/[C@H]1CCC(=O)[C@@H]1CCCCCCC(=O)O [11-deoxy-PGE1]	1.13 ± 0.15	0.13	0.79 ± 0.19 nM	0.21	
CCCCC[C@H](O)/C=C/[C@H]1CCC(=O)[C@@H]1C/C=C\CCCC(=O)O [11-deoxy-PGE2]	1.32 ± 0.24	0.23	0.66 ± 0.11 nM	0.42	
Cc1cc(Cl)ccc1-c1ccc([C@H](O)/C=C/[C@H]2CCC(=O)N2CCCCCCC(=O)O)cc1 [CAY10684]	0.16 ± 0.06	0.061	0.18 ± 0.1 nM	0.057	
CCOc1c2c(c(OCC)c3ccccc13)C(=O)N(c1ccc(CC(=O)O)cc1)C2 [CCL17464,2]					Ki (hEP4 receptor [6]): 19.9 nM
CCCCCCOc1c2c(c(OCCCCCC)c3ccccc13)C(=O)N(c1ccc(CC(=O)O)cc1)C2 [CCL17464,19]					Ki (hEP4 receptor [6]): > 6310 nM
CCCCC[C@H](O)/C=C/[C@H]1[C@H](O)CC(=O)[C@@H]1CCCCCCC(=O)O [PGE1, Prostaglandin E1]		0.13			EC50 (hEP4 receptor [5]): 0.42 ± 0.72 nM
CCCCC[C@H](O)/C=C/[C@H]1[C@H](O)CC(=O)[C@@H]1C/C=C\CCCC(=O)O [PGE2, prostaglandin E2]					Ki (rEP4 receptor): 0.19 nM
COCc1cccc(C[C@H](O)/C=C/[C@H]2[C@H](O)CC(=O)[C@@H]2CCSCCCC(=O)O)c1 [Rivenprost (free Acid)]	1.16 ± 0.29	0.37	0.142 nM and 0.14 nM	0.35	
CS(=O)(=O)NC(=O)CCC/C=C\C[C@H]1C(=O)C[C@@H](O)[C@@H]1/C=C/[C@@H](O)COc1ccccc1 [Sulprostone]					Ki (Rat EP4 Receptor [1]): 43600 nM; Ki (hEP4 receptor [2]): 3310 nM
